Assay [1] relates to Brachiaria plantaginea. The assay is described as follows: Glasshouse trial, control of Brachiaria, pre-emergence test. In kind it is in vivo. The conditions noted are these: TXP (where applied) 200 g ai/ha, 20 DAA. The procedure:
(§1) A glasshouse trial was carried out to test the activity of mesotrione or the compound of formula I (each at 3 different rates) in combination with trinexapac-ethyl at 200 gai/ha against Brachiaria plantaginea. Brachiaria seeds were sown in standard potting mix in 50 cm plastic troughs. The adjuvant system was X-77 at 0.1% v/v in deionised water. 500 liters of herbicide/adjuvant system was used per hectare. General weed control was evaluated at 15 days after application (DAA) for the post-emergence test and 20DAA for the pre-emergence test. It is noted that all herbicides were applied at reduced field rates because herbicide effects are magnified in a glasshouse environment. Rates were chosen to give a 50 to 70% level of control with herbicides applied alone as this allows for detection of any synergistic effect when tank mixtures are used.

Assay [2] deals with Brachiaria plantaginea. The assay is described as follows: Glasshouse trial, control of Brachiaria, post-emergence test. In kind it is in vivo. The conditions noted are these: TXP (where applied) 200 g ai/ha, 15 DAA. As for the experimental part:
as §1

For the molecule `CS(=O)(=O)c1ccc(C(=O)C2C(=O)CCCC2=O)c([N+](=O)[O-])c1` [Mesotrione, mesotrione], the “% Control at different herbicide rates” value in assay [1] (herbicide rate 30 g ai/ha) is 30%; in assay [1] (herbicide rate 60 g ai/ha), 50%; in assay [1] (herbicide rate 125 g ai/ha), 80%; in assay [2] (herbicide rate 30 g ai/ha), 30%; in assay [2] (herbicide rate 60 g ai/ha), 70%; in assay [2] (herbicide rate 125 g ai/ha), 70%.
In the case of `CCOC(=O)C1CC(=O)C(=C(O)C2CC2)C(=O)C1` (stereo not drawn) [TXP, trinexapac-ethyl], the “% Control at different herbicide rates” value in assay [1] (herbicide rate 30 g ai/ha), in assay [1] (herbicide rate 60 g ai/ha), in assay [1] (herbicide rate 125 g ai/ha), in assay [2] (herbicide rate 30 g ai/ha), in assay [2] (herbicide rate 60 g ai/ha) and in assay [2] (herbicide rate 125 g ai/ha) was 0% in each case.
Turning to `COCCOCc1nc(C(F)(F)F)ccc1C(=O)C1=C(O)C2CCC(C2)C1=O` (stereo not drawn) [Formula I], the “% Control at different herbicide rates” value in assay [1] (herbicide rate 30 g ai/ha) is reported as 30%; in assay [1] (herbicide rate 60 g ai/ha), 80%; in assay [1] (herbicide rate 125 g ai/ha), 90%; in assay [2] (herbicide rate 30 g ai/ha) it was 60%; in assay [2] (herbicide rate 60 g ai/ha), 70%; in assay [2] (herbicide rate 125 g ai/ha), 80%.

Source of the values: US9480252B2, “Herbicidal compositions” (Syngenta Crop Protection LLC, priority 2007, dated 2016).
